# In the supplement of paper PMC10307832:
# How the values were obtained:
# Assay in all cases: relative viability (nuclei count vs DMSO), 5 days (fraction); higher = more cells survive
# AZD5582 + OSI-027 = compound: C[C@@H](C(=O)N[C@@H](C1CCCCC1)C(=O)N2CCC[C@H]2C(=O)N[C@@H]3[C@@H](CC4=CC=CC=C34)OCC#CC#CCO[C@@H]5CC6=CC=CC=C6[C@@H]5NC(=O)[C@@H]7CCCN7C(=O)[C@H](C8CCCCC8)NC(=O)[C@H](C)NC)NC [AZD5582] + COc1cccc2cc(-c3nc([C@H]4CC[C@H](C(=O)O)CC4)n4ncnc(N)c34)[nH]c12 [OSI-027] (partner 0.5 µM)
# Summary of the method: (§1)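 One day after seeding in 1536-well plates, lung cancer cell lines were dosed by pin tool. Dosing was either single-drug or a fixed anchor-drug dose plus five library-drug doses (not always all listed) in √10 steps. After 5 days, nuclei were stained in one fix-and-stain step and counted on 4× images, and relative viability is the nuclei count of treated wells over that of vehicle wells, given as the median of duplicate plates.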
# AZD5582 + Pictilisib = compound: C[C@@H](C(=O)N[C@@H](C1CCCCC1)C(=O)N2CCC[C@H]2C(=O)N[C@@H]3[C@@H](CC4=CC=CC=C34)OCC#CC#CCO[C@@H]5CC6=CC=CC=C6[C@@H]5NC(=O)[C@@H]7CCCN7C(=O)[C@H](C8CCCCC8)NC(=O)[C@H](C)NC)NC [AZD5582] + CS(=O)(=O)N1CCN(Cc2cc3nc(-c4cccc5[nH]ncc45)nc(N4CCOCC4)c3s2)CC1 [Pictilisib] (partner 1 µM)
# Summary of the method: as §1
# Temozolomide + Lapatinib = compound: Cn1nnc2c(C(N)=O)ncn2c1=O [Temozolomide] + CS(=O)(=O)CCNCc1ccc(-c2ccc3ncnc(Nc4ccc(OCc5cccc(F)c5)c(Cl)c4)c3c2)o1 [Lapatinib] (partner 2 µM)
# Summary of the method: as §1
# Temozolomide + Dasatinib = compound: Cn1nnc2c(C(N)=O)ncn2c1=O [Temozolomide] + Cc1nc(Nc2ncc(C(=O)Nc3c(C)cccc3Cl)s2)cc(N2CCN(CCO)CC2)n1 [Dasatinib] (partner 0.075 µM)
# Summary of the method: as §1
Cell Line,relative viability (AZD5582 + OSI-027; first compound 0.001581 µM),relative viability (AZD5582 + OSI-027; first compound 0.005 µM),relative viability (AZD5582 + OSI-027; first compound 0.01581 µM),relative viability (AZD5582 + OSI-027; first compound 0.05 µM),relative viability (AZD5582 + Pictilisib; first compound 0.001581 µM),relative viability (AZD5582 + Pictilisib; first compound 0.005 µM),relative viability (AZD5582 + Pictilisib; first compound 0.01581 µM),relative viability (AZD5582 + Pictilisib; first compound 0.05 µM),relative viability (Temozolomide + Lapatinib; first compound 0.2 µM),relative viability (Temozolomide + Lapatinib; first compound 0.6325 µM),relative viability (Temozolomide + Lapatinib; first compound 2 µM),relative viability (Temozolomide + Lapatinib; first compound 6.325 µM),relative viability (Temozolomide + Lapatinib; first compound 20 µM),relative viability (Temozolomide + Dasatinib; first compound 0.2 µM),relative viability (Temozolomide + Dasatinib; first compound 0.6325 µM),relative viability (Temozolomide + Dasatinib; first compound 2 µM),relative viability (Temozolomide + Dasatinib; first compound 6.325 µM),relative viability (Temozolomide + Dasatinib; first compound 20 µM)
NCI-H2085,0.499,0.902,0.578,0.367,0.572,0.44,0.488,0.584,0.75,0.751,0.75,0.779,0.778,0.22,0.293,0.282,0.262,0.218
HOP-62,0.727,0.837,0.83,0.83,0.445,0.655,0.256,0.62,1.29,1.02,1.05,1.05,0.75,0.744,0.759,0.73,0.609,0.711
NCI-H2126,0.709,0.703,0.522,0.607,0.505,0.556,0.436,0.533,0.82,0.771,0.793,0.771,0.797,0.634,0.664,0.678,0.61,0.641
LXF-289,0.71,0.907,0.495,0.792,0.705,0.795,0.757,0.794,0.939,0.934,0.919,0.847,0.861,0.27,0.228,0.192,0.18,0.252
HCC-366,0.654,0.995,–,0.934,0.0939,0.203,0.102,0.205,1.18,1,1.1,1.08,1.07,0.661,0.688,0.655,0.682,0.652
RERF-LC-KJ,–,–,0.508,0.289,0.471,–,0.541,0.392,0.819,0.922,0.909,0.767,0.846,0.913,0.825,0.931,0.931,0.767
NCI-H661,0.6,0.725,0.722,0.676,0.36,0.416,0.403,0.399,–,0.599,0.506,0.433,0.508,0.781,0.953,0.962,0.762,0.706
NCI-H1395,0.7,0.734,0.583,0.767,0.601,0.698,–,0.632,1.07,1.19,1.5,0.903,0.968,0.429,0.393,0.491,0.402,0.392
SW 900,0.412,0.559,0.518,0.571,–,–,–,–,–,–,–,–,–,0.644,0.561,0.381,0.541,0.553
COR-L23,0.799,0.721,0.768,0.756,0.71,0.818,0.621,0.717,1.25,1.03,1.12,1.02,0.948,0.635,0.516,0.542,0.461,0.6
NCI-H1650,0.599,0.859,0.547,0.564,0.535,0.738,0.485,0.604,0.991,0.925,0.783,0.662,0.743,0.356,0.329,0.343,0.318,0.28
HCC-44,0.42,0.39,0.251,0.255,0.485,0.6,0.461,0.233,1.14,1.01,1.11,1.05,0.975,–,–,–,–,–
PC-3 [JPC-3],0.633,0.596,0.635,0.504,0.664,0.543,0.607,0.332,0.504,0.466,0.511,0.461,0.437,0.825,0.987,1.07,1.02,0.438
NCI-H23,0.403,0.45,0.245,0.21,0.419,0.387,0.408,0.327,1.22,1.04,1.15,0.969,0.912,0.921,0.898,0.768,0.744,0.861
Calu-6,–,–,–,–,0.779,–,0.939,0.698,1.17,1.07,1.11,1.13,1.16,–,–,–,–,–
NCI-H1623,0.422,0.407,0.457,0.432,–,–,–,–,–,–,–,–,–,–,0.555,0.455,0.474,0.355
LCLC-103H,0.465,0.486,0.375,0.37,0.649,0.699,0.454,0.559,–,–,–,–,–,0.524,0.567,0.548,0.565,0.471
NCI-H1299,–,–,–,–,0.702,0.879,0.822,0.805,1.03,0.98,0.994,0.97,0.962,–,–,–,–,–
EBC-1,–,–,–,–,0.256,0.328,0.346,0.344,0.197,0.193,0.252,0.203,0.194,–,–,–,–,–
A549,–,–,–,–,0.474,0.477,0.585,0.505,0.989,1.03,1.01,1.03,0.912,–,–,–,–,–
NCI-H441,0.536,0.582,–,0.651,0.419,0.536,0.405,0.47,–,–,–,–,–,0.656,0.621,0.682,0.608,0.724
NCI-H522,0.671,0.711,0.861,0.595,–,–,–,–,–,–,–,–,–,0.877,0.729,0.932,0.703,0.935
